Data reported in ChEMBL document CHEMBL1138537, “Small-molecule scaffolds for CYP51 inhibitors identified by high-throughput screening and defined by X-ray crystallography” (Antimicrob Agents Chemother, 2007).

Target: Sterol 14alpha-demethylase (Mycobacterium tuberculosis, UniProt P9WPP9, F78L)

Compound: O=C(Nc1ccncc1)C(NS(=O)(=O)c1cccc2nsnc12)c1ccccc1 (stereo unspecified)
- Kd: 23.2 µM
